Laboratory results reported in patent EP0942911B1, “BENZOPYRANOPYRROLE AND BENZOPYRANOPYRIDINE ALPHA-1 ADRENERGIC COMPOUNDS” (Abbott Laboratories, priority 1996, dated 1998).
Structures can show the parent of a compound that is named as a salt.

Target: T1, α-1B adrenoreceptor (Rattus norvegicus, UniProt P15823)
T1 construct: from tissue; host or cells: rat spleen
T1 sequence (P15823 1-515): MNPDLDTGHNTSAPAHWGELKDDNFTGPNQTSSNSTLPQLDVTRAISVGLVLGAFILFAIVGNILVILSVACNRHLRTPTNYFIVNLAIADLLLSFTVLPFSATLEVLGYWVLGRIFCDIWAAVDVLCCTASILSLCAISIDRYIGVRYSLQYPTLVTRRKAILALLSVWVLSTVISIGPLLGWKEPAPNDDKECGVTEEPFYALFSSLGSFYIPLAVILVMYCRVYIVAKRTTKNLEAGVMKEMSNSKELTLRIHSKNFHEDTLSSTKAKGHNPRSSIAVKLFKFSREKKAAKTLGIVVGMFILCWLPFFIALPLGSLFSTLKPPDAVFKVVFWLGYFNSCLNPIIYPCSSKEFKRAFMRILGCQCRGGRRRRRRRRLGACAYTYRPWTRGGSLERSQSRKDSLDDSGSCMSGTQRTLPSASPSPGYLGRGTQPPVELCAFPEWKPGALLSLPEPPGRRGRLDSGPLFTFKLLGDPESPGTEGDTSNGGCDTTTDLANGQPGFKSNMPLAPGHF
Test: cell-based
Conditions: phenylephrine-induced contraction, Schild plot; for Kb: read-out: In Vitro Characterization (pA2) Rat Spleen (converted)
Outline: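 Phenylephrine dose-response curves for contraction were repeated against increasing test-agent concentrations. pA2 was derived by Schild plot [[…] vs log molarity of test agent].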

Row | Structure (SMILES) | Kb [nM] | In Vitro Characterization (pA2) Rat Spleen
1 | COc1cccc2c1[C@@H]1CN(CCCCn3c(=O)[nH]c4c(sc5ccnc(OC)c54)c3=O)C[C@H]1CO2 [Example 49, 3-[4-((3aS,9bR)-trans-9-Methoxy-1,2,3,3a,4,9b-hexahydro-[1]-benzopyrano[3,4-c]pyrrol-2-yl)butyl]-9-methoxy-pyrido[3',4':4,5]thieno[3,2-d]pyrimidine-2,4(1H,3H)-dione fumarate] | 7.24 | 
2 | COc1cccc2c1[C@@H]1CN(CCCCn3c(=O)[nH]c4c(sc5c(Cl)nccc54)c3=O)C[C@@H]1CO2 [Example 53, 3-[4-((3aR,9bR)-cis-9-Methoxy-1,2,3,3a,4,9b-hexahydro-[1]-benzopyrano[3,4-c]pyrrol-2-yl)butyl]-6-chloro-pyrido[4',3':4,5]thieno[3,2-d]pyrimidine-2,4(1H,3H)-dione] | 63.1 | 
3 | COc1cccc2c1[C@@H]1CN(CCCCn3c(=O)[nH]c4c(sc5ccc(Cl)nc54)c3=O)C[C@H]1CO2 [Example 25, 3-[4-((3aS,9bR)-trans-9-Methoxy-1,2,3,3a,4,9b-hexahydro-[1]-benzopyrano[3,4-c]pyrrol-2-yl)butyl]-8-chloro-pyrido[2',3':4,5]thieno[3,2-d]pyrimidine-2,4(1H,3H)-dione dihydrochloride] | 2 | 
4 | COc1cccc2c1[C@@H]1CN(CCCCn3c(=O)[nH]c4c(sc5ncccc54)c3=O)C[C@@H]1CO2 [Example 34, 3-[4-((3aR,9bR)-cis-9-Methoxy-1,2,3,3a,4,9b-hexahydro-[1]-benzopyrano[3,4-c]pyrrol-2-yl)butyl]-pyrido[3',2':4,5]thieno[3,2-d]pyrimidine-2,4(1H,3H)-dione hydrochloride] | 7.59 | 
5 | COc1cccc2c1[C@@H]1CN(CCCCn3c(=O)[nH]c4c(sc5ccncc54)c3=O)C[C@H]1CO2 [Example 41, 3-[4-((3aS,9bR)-trans-9-Methoxy-1,2,3,3a,4,9b-hexahydro-[1]-benzopyrano[3,4-c]pyrrol-2-yl)butyl]-pyrido[3',4':4,5]thieno[3,2-d]pyrimidine-2,4(1H,3H)-dione dihydrochloride] | 3.98 | 
6 | COc1cccc2c1[C@@H]1CN(CCCCn3c(=O)[nH]c4c(sc5nc(Cl)ccc54)c3=O)C[C@H]1CO2 [Example 47, 3-[4-((3aS,9bR)-trans-9-Methoxy-1,2,3,3a,4,9b-hexahydro-[1]-benzopyrano[3,4-c]pyrrol-2-yl)butyl]-7-chloro-pyrido[3',2':4,5]thieno[3,2-d]pyrimidine-2,4(1H,3H)-dione hydrochloride] | 11.2 | 
7 | COc1cc2nc(N3CCN(C(=O)C4COc5ccccc5O4)CC3)nc(N)c2cc1OC (stereo not drawn) [Doxazosin, doxazosin, reference compound] |  | 9.51
8 | COc1cc2[nH]c(=O)n(CCCCN3C[C@@H]4COc5ccccc5[C@@H]4C3)c(=O)c2cc1OC (racemic) [Example 81, 3-[4-((±1-cis-1,2,3,3a,4,9b-hexahydro-[1]-benzopyrano[3,4-c]pyrrol-2-yl)butyl]-6,7-dimethoxy-quinazoline-2,4(1H,3H)-dione hydrochloride] | 38.9 | 
9 | COc1cccc2c1[C@@H]1CN(CCCCn3c(=O)[nH]c4c(sc5ccnc(Cl)c54)c3=O)C[C@@H]1CO2 [Example 48, 3-[4-((3aR,9bR)-cis-9-Methoxy-1,2,3,3a,4,9b-hexahydro-[1]-benzopyrano[3,4-c]pyrrol-2-yl)butyl]-9-chloro-pyrido[3',4';4,5]thieno[3,2-d]pyrimidine-2,4(1H,3H)-dione hydrochloride] | 39.8 | 
10 | COc1cccc2c1[C@@H]1CN(CCCCn3c(=O)[nH]c4c(sc5ccncc54)c3=O)C[C@@H]1CO2 [Example 28, 3-[4-((3aR,9bR)-cis-9-Methoxy-1,2,3,3a,4,9b-hexahydro-[1]-benzopyrano[3,4-c]pyrrol-2-yl)butyl]-pyrido[3',4':4,5]thieno[3,2-d]pyrimidine-2,4(1H,3H)-dione dihydrochloride] | 4.37 | 
11 | COc1cccc2c1[C@@H]1CN(CCCCn3c(=O)[nH]c4c(sc5nccc(OC)c54)c3=O)C[C@@H]1CO2 [Example 36, 3-[4-((3aR,9bR)-cis-9-Methoxy-1,2,3,3a,4,9b-hexahydro-[1]-benzopyrano[3,4-c]pyrrol-2-yl)butyl]-9-methoxy-pyrido[3',2':4,5]thieno[3,2-d]pyrimidine-2,4(1H,3H)-dione hydrochloride] | 8.13 | 
12 | COc1ccc2sc3c(=O)n(CCCCN4C[C@@H]5COc6cccc(OC)c6[C@@H]5C4)c(=O)[nH]c3c2n1 [Example 30, 3-[4-((3aR,9bR)-cis-9-Methoxy-1,2,3,3a,4,9b-hexahydro-[1]-benzopyrano[3,4-c]pyrrol-2-yl)butyl]-8-methoxy-pyrido[2',3':4,5]thieno[3,2-d]pyrimidine-2,4(1H,3H)-dione hydrochloride] | 21.4 | 
13 | COc1cnc2sc3c(=O)n(CCCCN4CC5COc6cccc(OC)c6[C@@H]5C4)c(=O)[nH]c3c2n1.Cl (stereo in doubt) [Example 43, 3-[4-((3aS,9bR)-trans-9-Methoxy-1,2,3,3a,4,9b-hexahydro-[1]-benzopyrano[3,4-c]pyrrol-2-yl)butyl]-8-methoxy-pyrazino[2',3':4,5]thieno[3,2-d]pyrimidine-2,4(1H,3H)-dione hydrochloride] |  | 7.66
14 | COc1cccc2c1[C@@H]1CN(CCCCn3c(=O)[nH]c4c(sc5nc(C)ccc54)c3=O)C[C@@H]1CO2 [Example 35, 3-[4-((3aR,9bR)-cis-9-Methoxy-1,2,3,3a,4,9b-hexahydro-[1]-benzopyrano[3,4-c]pyrrol-2-yl)butyl]-7-methyl-pyrido[3',2':4,5]thieno[3,2-d]pyrimidine-2,4(1H,3H)-dione hydrochloride] | 11 | 
15 | COc1cccc2c1[C@@H]1CN(CCCCn3c(=O)[nH]c4c(sc5ccc(OC(C)C)nc54)c3=O)C[C@H]1CO2 [Example 51, 3-[4-((3aS,9bR)-trans-9-Methoxy-1,2,3,3a,4,9b-hexahydro-[1]-benzopyrano[3,4-c]pyrrol-2-yl)butyl]-8-isopropoxy-pyrido[2',3':4,5]thieno[3,2-d]pyrimidine-2,4(1H,3H)-dione hydrochloride] | 33.9 | 
16 | COc1cccc2c1[C@@H]1CN(CCCCn3c(=O)[nH]c4c(sc5ccc(Cl)nc54)c3=O)C[C@@H]1CO2 [Example 37, 3-[4-((3aR,9bR)-cis-9-Methoxy-1,2,3,3a,4,9b-hexahydro-[1]-benzopyrano[3,4-c]pyrrol-2-yl)butyl]-8-chloro-pyrido[2',3':4,5]thieno[3,2-d]pyrimidine-2,4(1H,3H)-dione hydrochloride] | 9.33 | 
17 | COc1cccc2c1[C@@H]1CN(CCCCn3c(=O)[nH]c4c(sc5c(Cl)nccc54)c3=O)C[C@H]1CO2 [Example 54, 3-[4-((3aS,9bR)-trans-9-Methoxy-1,2,3,3a,4,9b-hexahydro-[1]-benzopyrano[3,4-c]pyrrol-2-yl)butyl]-6-chloro-pyrido[4',3':4,5]thieno[3,2-d]pyrimidine-2,4(1H,3H)-dione] | 49 | 
18 | COc1cccc2c1[C@@H]1CN(CCCCn3c(=O)[nH]c4c(sc5cnccc54)c3=O)C[C@H]1CO2 [Example 42, 3-[4-((3aS,9bR)-trans-9-Methoxy-1,2,3,3a,4,9b-hexahydro-[1]-benzopyrano[3,4-c]pyrrol-2-yl)butyl]-pyrido[4',3':4,5]thieno[3,2-d]pyrimidine-2,4(1H,3H)-dione dihydrochloride] | 2.75 | 
